Results on 23 compounds are retold here after US8536196B2, “Substituted 1,3-dioxanes useful as PPAR modulators” (Evolva SA, priority 2007, dated 2013).

For one data set, the system named is MEFs / 3T3-L1. Put plainly: Adipocyte differentiation induction assay (Oil Red O staining). Format: cell-based, mouse. Conditions: for Adip. (adipocyte differentiation): relative to DPD (SN1). On the set-up: key to Adip. (adipocyte differentiation): 0: similar results to DPD; −1: even less adipocyte differentiation; +1: more adipocyte differentiation (both relative to DPD). The procedure: This example describes an assay for determining adipocyte differention. Compounds are tested to see whether they induce adipocyte differentiation and also to see whether they inhibit adipocyte differention.
MEFs were grown in AmnioMax basal medium (Gibco) supplemented with 7.5% Amniomax supplement C-100 (Gibco), 7.5% Fetal Bovine Serum (FBS), 2 mM Glutamine, 62.5 μg/ml penicillin and 100 μg/ml Streptomycin (growth medium). At confluence, MEFs were induced to differentiation in growth medium with the addition of 1 μM dexamethasone (Sigma) 0.5 mM isobutylmethylxanthine (Sigma), 5 μg/ml insulin (Sigma) and 10 μM test compound dissolved in DMSO or DMSO alone. Medium was subsequently renewed every 48 hrs with growth media supplemented with 5 μg/ml Insulin and ligand or DMSO.
Briefly, to test compounds as inducers of adipocyte differentiation, 3T3-L1 are grown to confluence in DMEM with 10% Calf serum (CS), typically in 24 well dishes. At 2 days post confluence (day 0), cells are induced to differentiate with DMEM supplemented with 10% fetal bovine serum (FBS), 1 μM dexamethasone and the test compound (01, 1 and 10 μM). BRL49653 (1.0 μM dissolved in 100% DMSO) is used as a positive control. After 48 h, the cells are re-fed with DMEM containing 10% FBS supplemented with the test compound or the positive control. From day 4, cells are grown in DMEM with 10% FBS and are changed every second day until day 8. At day 8, cells are stained with Oil Red O as described below.
Cells cultured as described above are used for Oil Red staining. Dishes are washed in PBS and cells were fixed in 3.7% paraformaldehyde for 1 h and stained with oil red O as described in (Hansen et al 1999). Oil red O solution stock solution is prepared by dissolving 0.5 g of Oil Red O (Sigma) in 100 mL of isopropanol. Oil re 0 working solution is prepared by diluting a stock solution with water (6:4) followed by filtration.
Table II summarizes results obtained with different analogs of DPD (SN1), “0” representing similar results to DPD, “−1” representing even less adipocyte differentiation, “+1” representing more adipocyte differentiation (both relative to DPD) and “−” meaning not assayed.

In the next data set the target is T1, Gal4-PPARgammaLBD (Homo sapiens, UniProt P37231).
T1 construct: expressed in transfected cells; host or cells: mouse embryonic fibroblasts (MEFs) or ME3 cells
T1 sequence (P37231 204-505): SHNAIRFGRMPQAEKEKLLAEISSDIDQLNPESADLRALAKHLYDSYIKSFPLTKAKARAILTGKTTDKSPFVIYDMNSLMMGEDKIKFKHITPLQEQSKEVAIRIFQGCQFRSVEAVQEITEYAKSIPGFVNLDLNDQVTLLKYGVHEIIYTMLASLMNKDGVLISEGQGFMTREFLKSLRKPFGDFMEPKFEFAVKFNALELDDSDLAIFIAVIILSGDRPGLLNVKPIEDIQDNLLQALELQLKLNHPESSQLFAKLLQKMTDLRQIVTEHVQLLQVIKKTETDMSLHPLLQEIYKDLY
Put plainly: PPARgamma transactivation assay (Gal4-PPARgammaLBD, UASx4-TK-luc reporter). Format: cell-based. Conditions: for PPAR (PPARgamma activating activity): level of activity relative to 10 μM DPD (SN1). An excerpt: This is an example of a transactivation assay for determining PPAR gamma modulating activity.
The UASx-4-TK-luc reporter construct (where UAS refers to “upstream activator sequence”) contains four Gal4-responsive elements. The plasmid Gal4-PPARgammaLBD encodes a Gal4-DBD-PPARgamma-LBD fusion protein (i.e. the DNA-binding domain, DBD, of Gal4 fused to the ligand-binding domain, LBD, of PPARgamma) capable of transactivating the UASx-4-TK-luc reporter plasmid by binding to the UAS. The CMV-beta-galactosidase plasmid (where CMV is cytomegalovirus) is used for normalization of experimental values.
The cells were replated, typically in 24 well plates, so that at the time of transfection the cells are 50-70% confluent.
Briefly, per well in a 24 well plate, UASx4TKIuc (0.2 μg) Gal4-PPARgammaLBD (or pM-hPPARgamma-LBD; 0.1 μg) and CMV-beta-galactosidase (0.05 μg) in 30 μL DMEM (free of serum and antibiotics) is mixed with 30 μL DMEM (free of serum and antibiotics) containing 1 μL metafectenein. The mixture is incubated at room temperature for 20 min to allow formation of nucleic acid-lipid complexes and then approximately 60 μL is added to each well containing the 50-60% confluent cells. […] Cells were harvested after 12-24 hours and luciferase and beta-galactosidase activities were measured according to standard protocols.
“−” means that testing was not performed.

Data set [1] relates to mice (FeCl3 induced femoral artery thrombosis). The data set is described as follows: FeCl3 arterial thrombosis mouse model (occlusion time, blood flow). Format: in vivo. The procedure:
The solutions were diluted 3.3-fold in saline and 100 μl/25 g was injected.
During the experiments, a soluble potassium salt of the drug was provided, diluted in saline. Of this formulation, 100 μl/25 g was injected i.v. in the tail vein (dose of 100 mg/kg).
Aspirin is given the same way at a dose of 200 mg/kg. Clopidogrel is administered by oral gavage at a dose of 20 mg/kg at 6-7 hours prior to the experiment. The solutions were coded (except for clopidogrel) and the operator was blinded to the code. The animals assigned to each group were matched for body weight. All mice used were 8-10 weeks old males and were in a 100% Swiss genetic background.
(§1) The flow in each image is expressed as a percentage of that at the contralateral side, and data are averaged for all 120 images to determine total flow. The same analysis is performed for 10 min intervals (which gives essentially the same information as the area under the curve). […] Flow before treatment is recorded as 100%, and that in occluded arteries as 0%. At the end of the experiment, blood is collected on 0.01M citrate by heart puncture for determination of blood cell counts. Plasma is prepared by centrifugation and stored at −20° C. for determination of drug levels.
Statistical analysis for differences between two groups is performed by non-parametric Student t-test. Occlusion times >30 min were considered equal to 30 min for statistical analysis. It should be noted that this approach may result in a statistical bias, the more so because the number of experiments is not the same in the different groups. Significance is set at p<0.05.

A short description of data set [2]: Blood cell analysis at end of thrombosis experiment. Format: in vivo, mouse. The procedure: as §1
Table VI summarizes the results of blood cell analysis performed on a sample taken at the end of the observation period. (Z)-6-((2S,4S,5R)-2-(2-chlorophenyl)-4-(2-hydroxyphenyl)-1,3-dioxan-5-yl)hex-4-enoic is referred to in Table VI as EV.

The mark [3] stands for this setting: Clopidogrel 20 mg/kg oral gavage, n = 6, mean ± SEM.
The mark [4] stands for this setting: Aspirin 200 mg/kg i.v., n = 7, mean ± SEM.

With `COc1ccccc1[C@@H]1O[C@H](c2ccccc2Cl)OC[C@@H]1C/C=C\CCC(=O)O` [Compound 4, (Z)-6-((2R,4R,5S)-2-(2-chlorophenyl)-4-(2-methoxyphenyl)-1,3-dioxan-5-yl)hex-4-enoic acid], in the data set with MEFs / 3T3-L1, the “Adip. (adipocyte differentiation)” value is given as 0.

For `COc1ccccc1[C@H]1OC(C)(C)OC[C@H]1C/C=C\CCCCC(=O)O` [compound 37], at Gal4-PPARgammaLBD, the “PPAR (PPARgamma activating activity)” value is “Inactive”. For the same compound, the “Adip. (adipocyte differentiation)” value in the data set with MEFs / 3T3-L1 worked out at 0.

`COc1ccccc1[C@H]1OC[C@@H](C/C=C\CCC(=O)O)[C@@H](c2ccccc2O)O1` [compound 18]: the “Adip. (adipocyte differentiation)” value with MEFs / 3T3-L1 is reported as −1.

For `O=C(O)CC/C=C\C[C@@H]1COC(c2cccc3ccccc23)O[C@@H]1c1ccccc1O` (stereo partly drawn) [compound 9], in the data set on MEFs / 3T3-L1, the “Adip. (adipocyte differentiation)” value turned out to be 0.

Take `COc1ccc(Oc2ccccc2C2OC[C@@H](C/C=C\CCC(=O)O)[C@@H](c3ccccc3O)O2)cc1` (stereo partly drawn) [compound 7]: on Gal4-PPARgammaLBD, the “PPARgamma activity (summary in words)” value was “higher potency”. Also, in the data set with MEFs / 3T3-L1, the “adipocyte differentiation (summary in words)” value is reported as “low or no adipocyte differentiation” and the “Adip. (adipocyte differentiation)” value was 0.

For the compound `O=C(O)CC/C=C\C[C@@H]1COC2(CCNCC2)O[C@@H]1c1ccccc1O` [compound 8], at Gal4-PPARgammaLBD, the “PPAR (PPARgamma activating activity)” value is listed as “Boc de- rivative Inactive”. In addition, the “Adip. (adipocyte differentiation)” value with MEFs / 3T3-L1 was −1.

`COC(=O)[C@H](c1ccccc1Cl)N1CCc2sccc2C1` [Clopidogrel, reference compound]: the occlusion result in data set [1] (20 mg/kg oral gavage 6-7 hours prior to the experiment, 30 min observation) is “totally prevents occlusion within 30 min in 6/7 experiments”. For the same compound, the total blood flow result in data set [1] (20 mg/kg oral gavage, versus vehicle) is “significantly improved total blood flow”. Also, in data set [2] (setting [3]), the Hematocrit is recorded as 72 ± 2.7%, the Hemoglobin was found to be 15 ± 0.60 g/dL, the Lymphocytes was found to be 47 ± 7.8% and the Neutrophils came to 50 ± 7.2%. In data set [2] (setting [3]), the Platelets is reported as 1060 ± 106 ×10^3/μl, the Red blood cells is 9.0 ± 0.36 ×10^6/μl and the White blood cells is reported as 0.62 ± 0.22 ×10^3/μl.

Regarding `COc1ccccc1[C@H]1O[C@@H](c2c(Cl)cccc2Cl)OC[C@H]1C/C=C\CCC(=O)O` [compound 28], the “PPAR (PPARgamma activating activity)” value on Gal4-PPARgammaLBD is recorded as “Inactive”.

`O=C(O)CCCCCCC[C@@H]1CO[C@H](c2ccccc2Cl)O[C@@H]1c1ccccc1O` [compound 31]: the “Adip. (adipocyte differentiation)” value in the data set on MEFs / 3T3-L1 is recorded as 0.

With `O=C(O)CC/C=C\C[C@@H]1CO[C@H](C2CCCCC2)O[C@@H]1c1ccccc1O` [compound 21], the “Adip. (adipocyte differentiation)” value in the data set with MEFs / 3T3-L1 is 0.

Take `COc1cccc([C@H]2OC[C@@H](C/C=C\CCC(=O)O)[C@@H](c3ccccc3O)O2)c1OC` [compound 19]: the “Adip. (adipocyte differentiation)” value in the data set with MEFs / 3T3-L1 was 0.

For the compound `C/C=C/CC1OC[C@@H](C/C=C\CCC(=O)O)[C@@H](c2ccccc2O)O1` (stereo partly drawn) [compound 12], the “Adip. (adipocyte differentiation)” value in the data set on MEFs / 3T3-L1 was −1.

On to `COc1ccccc1[C@H]1OC(c2ccccc2Cl)OC[C@H]1C/C=C\CCC(=O)O` (stereo partly drawn) [compound 27], for which the “PPAR (PPARgamma activating activity)” value at Gal4-PPARgammaLBD was “Inactive”.

`O=C([O-])CC/C=C\C[C@@H]1CO[C@H](c2ccccc2Cl)O[C@@H]1c1ccccc1O.[K+]` [(Z)-6-((2S,4S,5R)-2-(2-chlorophenyl)-4-(2-hydroxyphenyl)-1,3-dioxan-5-yl(hex-4-enoic potassium]: in data set [1] (100 mg/kg in saline i.v.), the “blood flow, time window 0-10 min” value is “significantly higher blood flow as compared to either saline alone (p=0.009) or to aspirin (p=0.0006)”; the occlusion time entry was “prolonged the occlusion time”; the total blood flow entry was “significantly improved total blood flow as compared to either saline (p=0.0032) or aspirin (p=0.0021)”.

`CC(=O)Oc1ccccc1C(=O)O` [Aspirin, reference compound]: the occlusion time result in data set [1] (200 mg/kg i.v. in the tail vein) is on record as “no effect”. Besides, the total blood flow result in data set [1] (200 mg/kg i.v., versus vehicle) is listed as “no significant effect”. In data set [2] (setting [4]), the Hematocrit is 72 ± 0.60%, the Hemoglobin was 15 ± 0.19 g/dL, the Lymphocytes was found to be 60 ± 11% and the Neutrophils came out at 39 ± 11%. Moreover, in data set [2] (setting [4]), the Platelets is 1020 ± 59 ×10^3/μl, the Red blood cells is given as 9.3 ± 0.10 ×10^6/μl and the White blood cells is 1.4 ± 0.42 ×10^3/μl.

Consider `O=C(O)CC/C=C\C[C@@H]1COC2(CCCCC2)O[C@@H]1c1ccccc1O` [compound 6], for which, in the data set on MEFs / 3T3-L1, the “Adip. (adipocyte differentiation)” value amounted to 0.

Turning to `CC1(C)OC[C@@H](C/C=C\CCCCC(=O)O)[C@@H](c2ccccc2O)O1` [compound 36], the “PPAR (PPARgamma activating activity)” value at Gal4-PPARgammaLBD is “Inactive”.

For `O=C(O)CCC/C=C\C[C@@H]1CO[C@H](c2ccccc2Cl)O[C@@H]1c1ccccc1O` [compound 23], the “Adip. (adipocyte differentiation)” value with MEFs / 3T3-L1 was “+1”.

Consider `O=C(O)CC/C=C\C[C@@H]1CO[C@H](c2ccccc2Cl)O[C@@H]1c1ccccc1O` [compound 1], for which the “Adip. (adipocyte differentiation)” value with MEFs / 3T3-L1 is on record as 0.

As to `O=C(O)CC/C=C\C[C@@H]1COC(c2cccc(Cl)c2Cl)O[C@@H]1c1ccccc1O` (stereo partly drawn) [compound 2], in the data set with MEFs / 3T3-L1, the “Adip. (adipocyte differentiation)” value turned out to be 0.

On to `CC(C)[C@H]1OC[C@@H](C/C=C\CCC(=O)O)[C@@H](c2ccccc2O)O1` [compound 20], for which the “Adip. (adipocyte differentiation)” value in the data set with MEFs / 3T3-L1 came to 0.

Consider `CCCCCC1OC[C@@H](C/C=C\CCC(=O)O)[C@@H](c2ccccc2O)O1` (stereo partly drawn) [compound 11], for which the “Adip. (adipocyte differentiation)” value in the data set on MEFs / 3T3-L1 is on record as “+1”.

In the case of `COc1ccccc1[C@H]1O[C@@H](c2ccccc2Cl)OC[C@H]1C/C=C\CCC(=O)O` [Compound 5, (Z)-6-((2S,4S,5R)-2-(2-chlorophenyl)-4-(2-methoxyphenyl)-1,3-dioxan-5-yl)hex-4-enoic acid], the “Adip. (adipocyte differentiation)” value with MEFs / 3T3-L1 stood at 0.
